Measured values as given in patent EP1192182B1, “PITUITARY ADENYLATE CYCLASE ACTIVATING PEPTIDE (PACAP) RECEPTOR 3 (R3) AGONISTS AND THEIR PHARMACOLOGICAL METHODS OF USE” (priority 1999, dated 2001).
Starred links: 1 amine or outer side, 2 acyl side, 3 side chain; linkers in the order of their positions; H or OH if unused. Non-standard residues stand in square brackets, D forms with d. Residues, ends and D or L forms follow the SMILES beside them. No end group written: not given here. Tyr(Me) = O-methyl-Tyr (CH3O-Y), COc1ccc(C[C@H](N[*:1])C(=O)[*:2])cc1; Nle = CCCC[C@H](N)C(=O)O

Tests used:
[1] = Heart rate in conscious dogs; settings: i.v., AUC of first 10 minutes of heart rate change
Experimental: Beagle dogs were put into a sling where they have been trained to stand for up to 3 hours. The cuff of the heart rate monitor was placed around the tail of the dog.
Saline was injected into the cephalic vein and heart rate monitored every 2 minutes to establish a baseline. After 10 minutes, peptide, including peptides which are not part of the invention, was injected and heart rate monitored every 2 minutes for the next 20 minutes. If heart rate was normal at that time, a higher dose was given and heart rate monitored for 20 minutes.

[2] = Peptide-induced elevation of plasma insulin after IVGTT; format: in vivo; settings: one minute after IVGTT (0.4g/kg glucose), 1 nmole/kg peptide i.v., Wistar rats
Experimental: Wistar rats are fasted overnight (17 hrs) and then anesthetized with pentobarbital (0.1 ml/100 g BW). Glucose (0.4 g/kg dissolved in 1% human albumin-saline) +/- peptide (dissolved in 1% human albumin-saline) is injected intravenously into the tail vein. The rats are eye-bled 1 minute after the injection and 50-100ul of the plasma are assayed for insulin level with the Linco RIA kit (Linco Research, Inc., St. Charles, MO).
(§1) In accordance with the protocol of example 2 above, overnight fasted Wistar rats were anesthetized with pentobarital; i.v. injected with glucose ± peptide and eye bled after 1 minute. N=12 rats/group. […] The peptide or vehicle was given i.v. followed by a glucose load given i.p. in accordance with example 3. The plasma glucose was followed over the time period indicated.
Plasma insulin: Data are expressed as % of plasma insulin one minute after IVGTT (0.4g/kg glucose) with either saline, 0.1nmol/kg P51, P55, P60, P66 or 1 nmole/kg of the other peptides including peptides which are not part of the present invention in Wistar rats. Blood was drawn from the eye and insulin was measured with the rat insulin RIA kit (Linco Research, Inc, St. Charles, MO).

[3] = Intraperitoneal glucose tolerance test (IPGTT), plasma glucose; format: in vivo, Wistar rats; settings: for Plasma Glucose (% of Basal) i.v.: 1 nmol/kg peptide i.v.; for glucose disposal in the rat: 1 nmole/kg dose, subcutaneous route, FIG. 7 legend
Experimental: Wistar rats are fasted overnight and then anesthetized with pentobarbital. The rats were eye-bled (zero time) and the peptide ( in 1% human albumin) was injected into the tail vein. Five minutes later, 1 g/kg of glucose (in saline) was injected intraperitoneally, and the rats were eye-bled after 15, 30 and 60 minutes. Plasma glucose levels were determined using the Technicon Axon autoanalyzer, Bayer Diagnosics division of Bayer Corporation, Tarrytown NY, operated using Method No. SM4-2143F90 "Glucose".
as §1
Wistar rats were fasted overnight and then anesthetized with Pentobarbital. The rats were eye-bled (zero time) and the peptide (in 1 % human albumin) was injected subcutaneously. Five minutes later, 1 g/kg of glucose (in saline) was injected intraperitoneally, and the rats were eye-bled after 30 minutes.
Plasma glucose: Data are expressed as % of vehicle of plasma glucose area under the curve after IPGTT (1 g/kg glucose) after treatment with 1 nmol/kg dose of the peptide. […] The present Inventors have shown for the first time that this is because the effects of R2 and R3 on glucose tend to cancel each other out. […] Therefore, R3-selectlvlty appears to be a desirable attribute for medicaments which are to be employed in achieving blood glucose reduction, for treatment of type 2 diabetes.

[4] = in vivo; cited from earlier work
PACAP-R3 [5] = molecular target: T1, PACAP-R3 (Homo sapiens, UniProt P41587); assay: Cyclic AMP SPA on CHO cells expressing PACAP R3; format: cell-based; set-up: expressed in transfected cells; host or cells: CHO cells; settings: cAMP SPA, CHO cells transfected with PACAP-R3; EC50 = concentration at which 50% of maximum PACAP27 activity is achieved; NA = no detectable activities
T1 sequence (P41587 24-438): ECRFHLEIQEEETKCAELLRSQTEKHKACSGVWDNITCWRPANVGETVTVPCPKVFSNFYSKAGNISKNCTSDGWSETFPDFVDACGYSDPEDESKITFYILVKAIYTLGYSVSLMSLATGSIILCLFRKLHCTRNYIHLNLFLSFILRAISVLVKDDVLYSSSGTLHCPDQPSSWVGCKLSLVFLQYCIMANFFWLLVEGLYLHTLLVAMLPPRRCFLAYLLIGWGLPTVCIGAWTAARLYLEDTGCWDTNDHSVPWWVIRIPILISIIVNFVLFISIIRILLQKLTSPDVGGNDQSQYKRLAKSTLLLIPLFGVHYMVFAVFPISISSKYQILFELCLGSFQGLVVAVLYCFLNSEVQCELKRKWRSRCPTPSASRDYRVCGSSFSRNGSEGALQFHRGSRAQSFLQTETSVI
Experimental: (§2) CHO cells expressing the PACAP R3 were plated in 96-well plates (Costar) at 8 x 10^4 cell/well and grown at 37C for 24 hours in a MEM + nucleosides + glutamine (Giobco BRL), 10% FBS, 100 µg/ml Pen/Strep, 0.3 mg/ml glutamine, 1 mM HEPES, 0.5 mg/ml Geneticin (Gibco BRL). The media was removed and the plates were washed with PBS. The cells were incubated with a peptide, in Hepes-PBS-BSA with 0.4mg/mlSoybean Trypsin inhibitor, 0.5 mg/ml Bacitracin, 100uM IBMX, for 15 min at 37 C. Cyclic AMP in the ceii extracts was quantitated using the cAMP SPA direct screening assay system (Amersham Pharmacia Biotech Inc, Piscataway, NJ,). The peptides shown in Table 3 were assayed for cAMP activity.
(§3) EC50 is defined as the concentration of the polypeptide at which 50% of maximum PACAP27 activity is achieved. "NA" denotes no detectable activities. "R3 Selectivity" is derived from the ratio of EC50 at R2 versus EC50 at R3. […]

PACAP-R2 = molecular target: T2, PACAP-R2 (Homo sapiens, UniProt P32241); assay: Cyclic AMP SPA on CHO cells transfected with PACAP-R2; format: cell-based; settings: cAMP SPA, EC50 = concentration at which 50% of maximum PACAP27 activity is achieved, NA = no detectable activities
T2 construct: expressed in transfected cells; host or cells: CHO cells
T2 sequence (P32241 31-457): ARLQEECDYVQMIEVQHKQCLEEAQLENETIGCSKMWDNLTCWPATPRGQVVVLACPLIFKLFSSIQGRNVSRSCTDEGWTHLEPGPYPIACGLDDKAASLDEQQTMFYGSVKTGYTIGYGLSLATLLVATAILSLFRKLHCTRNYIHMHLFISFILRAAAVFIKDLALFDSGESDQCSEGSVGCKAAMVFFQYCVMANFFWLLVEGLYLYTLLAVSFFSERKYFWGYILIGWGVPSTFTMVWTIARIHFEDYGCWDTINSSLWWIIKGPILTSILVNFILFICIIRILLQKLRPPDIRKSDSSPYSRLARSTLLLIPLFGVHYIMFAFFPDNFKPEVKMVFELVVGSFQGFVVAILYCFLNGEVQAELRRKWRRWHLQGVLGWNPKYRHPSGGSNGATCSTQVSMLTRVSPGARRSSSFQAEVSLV
Experimental: as §2, §3

rat islets = assay: Insulin release from isolated rat islets; format: cell-based, Sprague-Dawley rats; settings: peptide 10nM for 2hrs, 8mM glucose; % of [insulin] in 8mM glucose alone
Experimental: Sprague Dawley rats (275-320 g) were used as the source of donor islets. Briefly, the pancreas was filled with 10 ml of cold reconstituted Liberase RI (Boehringer Manheim), harvested and incubated with additional 5 ml enzyme solution in water bath for 30 minutes. Tissue suspension was washed twice with cold 10% FBS/Hanks buffer (Gibco), resuspended in 8 ml 25% ficoll (Sigma) and then layered with 5 ml each of 23%, 20% and 11 % ficoll. The islets in the 20% layer after centrifugation were removed, washed twice with cold 10% FBS/Hank buffer and resuspended in 10% FBS/RPMI 1640 media (Sigma).
Islet insulin release: Rat islets were isolated from Sprague-Dawley rats as described in example 1 and treated with either vehicle or specified peptide (10nM) for 2hrs. Insulin concentration in the medium was measured with the Linco rat insulin RIA kit. Glucose concentration in the medium was 8mM. The data are expressed as % of [insulin] in 8mM glucose alone. No polypeptide-induced Increases in insulin concentration were observed al 3 mM glucose; thus, the insulin releasing activity of these polypeptides are glucose-dependent. It should be noted that the following Table includes data for polypeptides which are not part of the present invention.

PACAP-R3 [6] = molecular target: T1, PACAP-R3; settings: literature; cited from earlier work
[7] = plasma glucose area under the curve after IPGTT (1 g/kg glucose), % of vehicle

## [K15, R16, L27]VIP(1-7)/GRF(8-27) [Peptide R2P1]
[1]
  potency in heart rate increase, fold less potent than PACAP27 or maxadilan: at least 10 fold
[2]
  Plasma Insulin (% of Basal): 216 % of Basal
[3]; IPGTT, 1 nmol/kg
  increases plasma glucose level: 14%
[3]; [7]
  Plasma Glucose (% of Basal) i.v.: 114 % of Basal

## HAEGTFTSDV SSYLEGQAAK EFIAWLKGR-NH2 [GLP-1]
[4]
  plasma half-life: a few minutes
[3]
  glucose disposal in the rat: enhance glucose disposal

## HSDGIFTDSYSRYRKQLAAKKYLADVKK [Peptide R3P38]
PACAP-R3 [5]
  EC50: 2.3 nM
PACAP-R2
  EC50: 17 nM

## Ac-HSDAVFTENYTKLRKQLAAKKYLNDLKKGGT-NH2 [Peptide R3P1]
Rat islets
  Islet Insulin Release (% of Basal): 250 % of Basal
[2]
  Plasma Insulin (% of Basal): 480 % of Basal
[3]; [7]
  Plasma Glucose (% of Basal) i.v.: 73 % of Basal

## CC[C@H](C)[C@H](NC(=O)CNC(=O)[C@H](CC(=O)O)NC(=O)[C@H](CO)NC(=O)[C@@H](N)Cc1c[nH]cn1)C(=O)N[C@@H](Cc1ccccc1)C(=O)N[C@H](C(=O)N[C@@H](CC(=O)O)C(=O)N[C@@H](CO)C(=O)N[C@@H](CCCCN)C(=O)N[C@@H](CO)C(=O)N[C@@H](CCCNC(=N)N)C(=O)N[C@@H](Cc1ccc(O)cc1)C(=O)N[C@@H](CCCNC(=N)N)C(=O)N[C@@H](CCCCN)C(=O)N[C@@H](CCC(N)=O)C(=O)N[C@@H](CCSC)C(=O)N[C@@H](C)C(=O)N[C@H](C(=O)N[C@@H](CCCCN)C(=O)N[C@@H](CCCCN)C(=O)N[C@@H](Cc1ccc(O)cc1)C(=O)N[C@@H](CC(C)C)C(=O)N[C@@H](C)C(=O)N[C@@H](C)C(=O)N[C@H](C(=O)N[C@@H](CC(C)C)C(N)=O)C(C)C)C(C)C)[C@@H](C)O [PAC10]
PACAP-R3 [5]
  EC50: 27 nM
PACAP-R2
  EC50: 110 nM

## Ac-HSDAVFTEN(CH3O-Y)TKLRKQNIeAAKKYLNDLKK-NH2 (Ac-HSDAVFTEN[Tyr(Me)]TKLRKQ[Nle]AAKKYLNDLKK-NH2) [Peptide R3P4]
PACAP-R3 [6]
  PACAP-R3 selectivity: greater than 100 fold

## HSDAVFTDNYTRLRKQLAAKKYLNDIKK-NH2 [Peptide R3P13]
Rat islets
  Islet Insulin Release (% of Basal): 170 % of Basal
[2]
  Plasma Insulin (% of Basal): 465 % of Basal
[3]
  glucose disposal in the rat: enhance glucose disposal
[3]; 1 nmole/kg s.c., vehicle: 160 mg/dl above basal, Figure 7
  elevation of plasma glucose 30 minutes after IPGTT: significantly reduced
[3]; plasma glucose area under the curve after IPGTT (1 g/kg glucose), % of vehicle, 1 nmol/kg peptide s.c.
  Plasma Glucose (% of Basal) s.c.: 77 % of Basal

## CC(C)C[C@H](NC(=O)[C@H](CCC(N)=O)NC(=O)[C@H](CCCCN)NC(=O)[C@H](CCCNC(=N)N)NC(=O)[C@H](CC(C)C)NC(=O)[C@H](CCCCN)NC(=O)[C@@H](NC(=O)[C@H](Cc1ccc(O)cc1)NC(=O)[C@H](CC(N)=O)NC(=O)[C@H](CCC(=O)O)NC(=O)[C@@H](NC(=O)[C@H](Cc1ccccc1)NC(=O)[C@@H](NC(=O)[C@H](C)NC(=O)[C@H](CC(=O)O)NC(=O)[C@H](CO)NC(=O)[C@@H](N)Cc1c[nH]cn1)C(C)C)[C@@H](C)O)[C@@H](C)O)C(=O)N[C@@H](C)C(=O)N[C@@H](C)C(=O)N[C@@H](CCCCN)C(=O)N[C@@H](CCCCN)C(=O)N[C@@H](Cc1ccc(O)cc1)C(=O)N[C@@H](CC(C)C)C(=O)N[C@@H](CC(N)=O)C(=O)N[C@@H](CC(=O)O)C(=O)N[C@@H](CC(C)C)C(=O)N[C@@H](CCCCN)C(=O)N[C@@H](CCCCN)C(=O)NCC(=O)NCC(=O)N[C@H](C(=O)N[C@@H](CO)C(=O)N[C@@H](Cc1c[nH]c2ccccc12)C(=O)N[C@@H](CS)C(=O)N[C@@H](CCC(=O)O)C(=O)N1CCC[C@H]1C(=O)NCC(=O)N[C@@H](Cc1c[nH]c2ccccc12)C(=O)N[C@@H](CS)C(=O)N[C@@H](CCCNC(=N)N)C(=O)O)[C@@H](C)O [Peptide R3P19] (H-HSDAVFTENYTKLRKQLAAKKYLNDLKKGGTSWCEPGWCR-OH; C-terminus assumed)
[2]
  Plasma Insulin (% of Basal): 285 % of Basal
